# Measurements as given in patent US20170360761A1, “Selective Inhibition of HDAC6 and HDAC8, and Methods of Use Thereof” (Reaction Biology Corp., priority 2016, published 2017).
# Tests used:
# Format in all cases: cell-based
# [1] = test system: K562 cells; assay: MTS cell viability assay, K562 cells; conditions: Homo sapiens, 72 hours incubation
# Description: The effects of RBC-2008 on the viability of human tumor cell were assessed in an MTS assay. K562 cells were incubated with RBC-2008 in 384 well assay plates at 37° C., 5% CO2 for 72 hours. 5 μl of CellTiter 96® AQueous One Solution Reagent (MTS assay reagent) from Promega was added to each well and incubated for 3 hours. Absorbance at 492 nm was recorded using an Envision Multilabel Reader. The IC50 curves were plotted and the IC50 values were calculated using the GraphPad Prism 4 program based on a sigmoidal dose-response equation (FIG. 5).
# (§1) About 2000-5000 of U266 cells, REH cells, K562 cells, KMS-11 cells, RPMI-8226 cells and MM. 1S cells were incubated with RBC-2008 in 384 well assay plates at 37° C., 5% CO2 for 72 hours. An amount of 5 μl of CellTiter 96® AQueous One Solution Reagent (MTS assay reagent) from Promega was added to each well and incubated for 3 hours. Absorbance at 492 nm was recorded by Envision Multilabel Reader. The IC50 curves were plotted and the IC50 values were calculated using the GraphPad Prism 4 program based on sigmoidal dose-response equation. […] 1S cells respectively (FIG. 8).
# [2] = test system: MM. 1S cells; assay: MTS cell viability assay, MM. 1S cells; conditions: Homo sapiens, MM1.S, 72 hours incubation
# Description: as §1
# [3] = test system: U266 cells; assay: MTS cell viability assay, U266 cells; conditions: Homo sapiens, U-266, 72 hours incubation
# Description: as §1
# [4] = test system: KMS-11 cells; assay: MTS cell viability assay, KMS-11 cells; conditions: Homo sapiens, 72 hours incubation
# Description: as §1
# [5] = test system: RPMI-8226 cells; assay: MTS cell viability assay, RPMI-8226 cells; conditions: Homo sapiens, 72 hours incubation
# Description: as §1
# [6] = test system: REH cells; assay: MTS cell viability assay, REH cells; conditions: Homo sapiens, 72 hours incubation
# Description: as §1
structure (smiles),measurement,setting,value
O=C(NO)c1ccc(Cn2sc3ccccc3c2=O)cc1 [RBC-2008],IC50,[1],13.1 µM
same,IC50,[2],2.1 µM
same,IC50,[3],14.5 µM
same,IC50,[4],2.5 µM
same,IC50,[5],3.8 µM
same,IC50,[6],1.8 µM
